Results reported in article PMC6795141 (RNA, 2019).

Key:
[1] = target: T1, PaTrmD (tRNA (m^1G37) methyltransferase TrmD, PA14_15990) (Pseudomonas aeruginosa, UniProt Q02RL6); test: ITC with refolded PaTrmD; format: binding
T1 sequence (Q02RL6 5-250): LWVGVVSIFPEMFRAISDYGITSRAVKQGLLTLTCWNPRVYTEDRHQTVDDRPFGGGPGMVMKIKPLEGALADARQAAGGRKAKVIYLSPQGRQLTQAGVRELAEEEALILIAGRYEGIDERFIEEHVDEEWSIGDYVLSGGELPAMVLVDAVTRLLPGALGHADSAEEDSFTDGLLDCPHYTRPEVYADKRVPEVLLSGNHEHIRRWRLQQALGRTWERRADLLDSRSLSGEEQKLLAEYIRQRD

[2] = target: T1, PaTrmD (tRNA (m^1G37) methyltransferase TrmD, PA14_15990); test: crystal structures; format: biochemical
[3] = target: T2, PaTrmD (refolded) (Pseudomonas aeruginosa PA14, UniProt Q02RL6 5-250); test: ITC
T2 sequence: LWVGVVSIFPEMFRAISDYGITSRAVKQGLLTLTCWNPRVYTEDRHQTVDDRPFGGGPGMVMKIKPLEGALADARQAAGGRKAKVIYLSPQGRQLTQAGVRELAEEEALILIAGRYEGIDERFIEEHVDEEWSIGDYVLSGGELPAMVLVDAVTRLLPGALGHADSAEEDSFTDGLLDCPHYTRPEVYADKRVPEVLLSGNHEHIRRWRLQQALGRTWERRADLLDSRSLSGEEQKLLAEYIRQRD

C[S+](CC[C@H](N)C(=O)[O-])C[C@H]1O[C@@H](n2cnc3c(N)ncnc32)[C@H](O)[C@@H]1O (stereo partly drawn) [SAM, S-adenosyl-L-methionine]
Kd [1]: 14.4 ± 3.1 µM

Nc1ncnc2c1ncn2[C@@H]1O[C@H](C[C@@H](N)CC[C@H](N)C(=O)O)[C@@H](O)[C@H]1O [SFG, sinefungin]
Ki [2]: 0.41 ± 0.07 µM

B1: tRNALeu(GAG) (structured_RNA)
RNA: GGGGCCGAGGUGGUGGAAUUGGUAGACACGCUACCUUGAGGUGGUAGUGGCCAUAGGCUGUAGGGGUUCGAGUCCCCUCCUCGGUACCA
modifications: none (unmodified transcript)
Kd [3]: 13.6 ± 3 µM
